Literature values, collected in patent US7482336B2, “Aminocyclohexanes as dipeptidyl peptidase-IV inhibitors for the treatment or prevention of diabetes” (Merck & Co., Inc., priority 2004, dated 2009).

Legend:
DPP-IV = target: T1, DPP-IV (Homo sapiens, UniProt P27487)
T1 construct: GRF is rapidly degraded in plasma to GRF[3-44]

[1] = rats; Transplantation 63: 1495-1500 (1997)
[2] = mouse, cyclophosphamide-induced neutropenia; WO 99/56753

T1 sequence (P27487 whole entry, species assumed): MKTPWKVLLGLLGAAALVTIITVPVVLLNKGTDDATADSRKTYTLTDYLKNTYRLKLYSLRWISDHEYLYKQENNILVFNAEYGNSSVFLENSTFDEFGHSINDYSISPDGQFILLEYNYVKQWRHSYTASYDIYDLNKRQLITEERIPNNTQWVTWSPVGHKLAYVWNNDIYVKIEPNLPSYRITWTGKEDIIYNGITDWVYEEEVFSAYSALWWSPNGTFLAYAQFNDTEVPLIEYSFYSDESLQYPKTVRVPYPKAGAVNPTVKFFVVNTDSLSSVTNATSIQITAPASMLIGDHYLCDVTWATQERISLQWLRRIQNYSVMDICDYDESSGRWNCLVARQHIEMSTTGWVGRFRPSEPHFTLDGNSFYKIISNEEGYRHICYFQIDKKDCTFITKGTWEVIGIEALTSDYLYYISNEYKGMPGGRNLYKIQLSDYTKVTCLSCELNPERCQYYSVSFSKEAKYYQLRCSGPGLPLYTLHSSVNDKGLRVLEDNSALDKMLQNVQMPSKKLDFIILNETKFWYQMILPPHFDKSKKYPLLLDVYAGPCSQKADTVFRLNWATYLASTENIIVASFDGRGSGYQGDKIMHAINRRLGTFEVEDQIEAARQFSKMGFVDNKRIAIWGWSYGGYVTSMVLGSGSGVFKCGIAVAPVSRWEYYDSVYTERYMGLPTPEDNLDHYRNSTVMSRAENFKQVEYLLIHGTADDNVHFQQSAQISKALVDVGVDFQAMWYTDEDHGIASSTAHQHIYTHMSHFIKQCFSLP

diprotin A
degradation of GRF in plasma to GRF[3-44] (DPP-IV): prevented

CC(C)N1CCC(c2ccccc2)(c2ccccc2)CC1 [Prodipine, Pro-Pro-diphenyl-phosphonate]
cardiac allograft survival [1]: double cardiac allograft survival in rats from day 7 to day 14

CC(C)[C@H](N)C(=O)N1CCC[C@H]1B(O)O [Val-Boro-Pro]
hematopoiesis [2]: stimulated hematopoiesis
